Data on 5 compounds can be found in US5026726A, “Gossylic iminolactones and gossylic lactones and their anti-viral activities” (The University of New Mexico, priority 1989, dated 1991).

Data set [1] deals with HIV-1 virus (HIV-infected MT4 cells). In words: Anti-HIV-1 activity in infected MT4 cells (% IFA positive cells, 6 days). In kind it is cell-based, human immunodeficiency virus (HIV-1), LAV-A isolate. As for the experimental part: (§1) The above % IFA positive cells were determined 6 days after addition of HIV-1 virus. Cell viability is % viable cells relative to mock-treated cells or controls. FIGS. 1-A through D show one of many representative set of data.
An LAV-A isolate of human immunodeficiency virus (HIV-1) was used in this study. LAV-A was originally isolated by Dr. L. Montagnier, Pasteur Institute, Paris, and was obtained from Dr. T. Folks, NIAID.
MT4 cells, 10^7 cells/ml, were infected for 1 hour at 4° C., with stock HIV-1 virus, 0.5 ml stock/10^7 cells.
(§2) The infected cells were then resuspended in a complete medium (RPMI 1640 with 20% FBS, L-glutamine, 2 mM, penicillin, 100 units/ml, and streptomycin, 100 ug/ml). Aliquots were added to 24-well tissue culture plates containing varying concentrations of Compounds I, II, III and IV in complete media. The final cell concentration was 1.5×10^5 cells/ml.
(§3) Positive control wells received no drug. Negative control wells received mock-treated MT4 cells. Cells were incubated at 37° C. in 5% CO2. Media was changed after 3 days with fresh complete media containing the appropriate drug.
The percent HIV-1 viral infection was determined by an immunofluorescence assay (IFA) using heat-inactivated, pooled human anti-sera from HIV-positive patients as the first antibody and goat anti-human IgG conjugated with FITC as the second antibody. This is a standard immunoassay known in the art.
Slides were counterstained with Evans blue to obtain total cell counts from the same slides as is known in the art. Uninfected cells were consistently negative for fluorescence.

Another data set relates to MT4 cells. In words: Cytotoxicity to MT4 cells (trypan blue exclusion). In kind it is cell-based. Conditions: for toxicity to the host cell: MT4 cells. As for the experimental part: as §1, §2, §3
(§4) After 6 days, the viability of the MT4 cells, control or infected, was determined by trypan blue exclusion, which is a standard procedure to determine cell viability.

Data set [2] in a line: Cytotoxicity to MT4 cells (trypan blue exclusion). Format: cell-based. The note with it: human, mt4 cells; for MCC at 144 h: read-out: concentration at which toxicity to the host cell was shown. As for the experimental part:
as §1, §2, §3, §4

The test system of data set [3] is reverse transcriptase (RT). Conditions: literature; cited from earlier work.
For data set [4] the following is noted: literature; cited from earlier work.
A further data set deals with HIV virus. The note with it: after prolonged exposure, literature; cited from earlier work.
Data set [5] concerns billirubin binding site of the protein albumin. The note with it: literature; cited from earlier work.
The test system of the next data set is parainfluenza type 3. Conditions: literature; cited from earlier work.
A further data set relates to herpes simplex viruses. The note with it: literature; cited from earlier work.
The subject of a further data set is Trypanosoma cruzi. Conditions: literature; cited from earlier work.
A further data set has as its system Plasmodium falcicarum. Conditions: literature; cited from earlier work.
The subject of data set [6] is herpes simplex virus type II. The note with it: literature; cited from earlier work.

As to `Cc1cc2c(C(C)C)c(O)c(O)c3c2c(c1-c1c(C)cc2c(C(C)C)c(O)c(O)c4c2c1OC4=O)OC3=O` [Compound IV, gossylic lactone], the antiviral activity entry in [1] (below 250 uM) is on record as “very little antiviral activity”. The “toxicity to the MT4 cell” value with MT4 cells (250 uM) is “pronounced toxicity”.

For orientation: inhibition means the percentage by which the read-out fell short of the control. In general, CC50 refers to the concentration giving 50% cytotoxicity. A high value points to better tolerance by the cells. As to `Cc1cc2c(C(C)C)c(O)c(O)c3c2c(c1-c1c(C)cc2c(C(C)C)c(O)c(O)c4c2c1OC4=N)OC3=N` [Compound III, gossylic iminolactone], the inhibition at 1 µM in data set [1] (Human immunodeficiency virus 1, 144 h, 1 uM, 6 days, read-out: inhibition of virus replication) is around 50%. In addition, the EC50 in [1] (Human immunodeficiency virus 1, 144 h, read-out: ED50 (the source's name)) was 1 µM. For the same compound, in data set [2], the CC50 at 144 h was in the range of 25 to 50 µM and the MCC at 144 h was 50 µM. Further, the “toxicity to the host cell” value in the data set on MT4 cells (until the drug concentration reached 50 uM) is listed as “no toxicity to the host cell”.

On to `CC(=O)Oc1c(-c2c(C)cc3c(C(C)C)c(O)c(O)c(C#N)c3c2OC(C)=O)c(C)cc2c(C(C)C)c(O)c(O)c(C#N)c12` [Compound II, Gossylic nitrile-1,1'-diacetate], for which the inhibition at 50 µM in data set [1] (Human immunodeficiency virus 1, 144 h, 50 uM, 6 days, read-out: inhibition of virus replication) was around 50%. In addition, in data set [2], the MCC at 144 h is 250 µM.

With `Cc1cn([C@H]2C[C@H](N=[N+]=[N-])[C@@H](CO)O2)c(=O)[nH]c1=O` [AZT, 3'-azido-2',3'-dideoxythymidine], the “inhibition of reverse transcriptase” value in data set [3] was “inhibitor of the enzyme reverse transcriptase”. The “toxicity limiting use in HIV-infected patients” value in [4] was “hematologic toxicity limits, and in some cases precludes, the use”. Moreover, the “development of HIV resistance” value in the data set on HIV virus is given as “may develop resistance”.

Regarding `Cc1cc2c(C(C)C)c(O)c(O)c(C=O)c2c(O)c1-c1c(C)cc2c(C(C)C)c(O)c(O)c(C=O)c2c1O` [Compound I, gossypol], the “inhibition of virus replication” value in [1] (1 uM, 6 days) is recorded as “approximately 50%”. Further, in the data set on MT4 cells (1 uM), the “toxicity to the host cell” value is given as “significant toxicity to the host cell”. Further, the “binding to the bilirubin binding site of albumin” value in data set [5] is reported as “bind tightly”. Further, in the data set on parainfluenza type 3, the “antiviral properties: inactivation of parainfluenza type 3” value is listed as “capable of inactivating”. In addition, in the data set on herpes simplex viruses, the “antiviral properties: inactivation of herpes simplex viruses” value is given as “capable of inactivating”. Moreover, the “growth of Trypanosoma cruzi” value with Trypanosoma cruzi was “inhibited”. The “growth of Plasmodium falcicarum” value in the data set on Plasmodium falcicarum was “inhibited”. Further, in data set [6], the “antiviral activity against herpes simplex virus type II” value is “exhibit antiviral activities”.
